{"source": "patent US20240016860A1", "about": "“BACILLUS COAGULANS FOR IMPROVING CONSTIPATION AND APPLICATION THEREOF” (Thankcome Biological Science and Technology (Suzhou) Co., …, priority 2022, published 2024)", "type_in_all_cases": "in vivo, Kunming mice", "key": {"endothelin-1 (ET-1)": {"test_system": "endothelin-1 (ET-1)", "assay": "Serum gastrointestinal hormone ELISA: ET-1", "conditions": "Bis group: bisacodyl 100 mg/kg per day", "description": "(§1) After a week of adaptive culture, 40 mice are randomly divided into 5 groups, with 8 mice in each group, namely the group of normal control (NC), group of model (GM), BC69 low-dose group (BC-L), BC69 high-dose group (BC-H) and bisacodyl drug treatment group (Bis). During the experiment, saline gavage of 0.25 mL is administered daily to NC and GM mice; from day 1 to day 4, all mice except NC mice are additionally gavaged with loperamide hydrochloride suspension (1 mg/mL) 0.25 mL twice daily (at 9:00 a.m. and 2:00 p.m. respectively) to induce a functional constipation model of mice; after gavage on day 4, all mice are fasted from food but not water for 16 h; from day 5 to day 11, […] are gavaged with Bacillus coagulans BC suspension 0.25 mL every day, where the concentrations are 1.0×10^8 colony-forming units per milliliter (CFU/mL) and 4.0×10^9 CFU/mL respectively; mice of group Bis are gavaged with bisacodyl aqueous solution at 100 milligrams per kilogram (mg/kg) per day; after the completion of gavage on day 11, all groups of mice are fasted from food but not water for 16 h. […]\n(§2) The contents of endothelin (ET), gastrin (Gas), motilin (MTL), substance P (SP), somatostatin (SS) and vasoactive intestinal peptide (VIP) in serum are determined according to the instructions of the enzyme-linked immuno sorbent assay (ELISA) kit."}, "gastrin (Gas)": {"test_system": "gastrin (Gas)", "assay": "Serum gastrointestinal hormone ELISA: Gas", "conditions": "Bis group: bisacodyl 100 mg/kg per day", "description": "as §1, §2"}, "motilin (MTL)": {"test_system": "motilin (MTL)", "assay": "Serum gastrointestinal hormone ELISA: MTL", "conditions": "Bis group: bisacodyl 100 mg/kg per day", "description": "as §1, §2"}, "substance P (SP)": {"test_system": "substance P (SP)", "assay": "Serum gastrointestinal hormone ELISA: SP", "conditions": "Bis group: bisacodyl 100 mg/kg per day", "description": "as §1, §2"}, "somatostatin (SS)": {"test_system": "somatostatin (SS)", "assay": "Serum gastrointestinal hormone ELISA: SS", "conditions": "Bis group: bisacodyl 100 mg/kg per day", "description": "as §1, §2"}, "[1]": {"test_system": "vasoactive intestinal peptide (VIP)", "assay": "Serum gastrointestinal hormone ELISA: VIP", "conditions": "Bis group: bisacodyl 100 mg/kg per day", "description": "as §1, §2"}, "COX-2 mRNA": {"test_system": "COX-2 mRNA", "assay": "RT-qPCR mRNA expression in small intestine: COX-2", "conditions": "2^−ΔΔCt, actin reference, Bis group: bisacodyl 100 mg/kg per day", "description": "(§3) After a week of adaptive culture, 40 mice are randomly divided into 5 groups, with 8 mice in each group, namely the group of normal control (NC), group of model (GM), BC69 low-dose group (BC-L), BC69 high-dose group (BC-H) and bisacodyl drug treatment group (Bis). […]\n(§4) Messenger ribonucleic acid (mRNA) expressions of COX-2, c-kit, NFκB, iNOS, eNOS, nNOS and SCF are detected by RT-qPCR, and total RNA is extracted and complementary deoxyribonucleic acid (cDNA) reverse transcription is carried out according to the instructions of RNA extraction kit and cDNA reverse transcription kit; then a microspectrophotometer is used to identify the purity of the RNA at 260/280 nanometers (nm). Actin (actin) is used as a standardized internal reference for RT-qPCR analysis, and final RT-qPCR product expression is determined using the 2^−ΔΔCt method."}, "c-kit mRNA": {"test_system": "c-kit mRNA", "assay": "RT-qPCR mRNA expression in small intestine: c-kit", "conditions": "2^−ΔΔCt, actin reference, Bis group: bisacodyl 100 mg/kg per day", "description": "as §3, §4"}, "NFκB mRNA": {"test_system": "NFκB mRNA", "assay": "RT-qPCR mRNA expression in small intestine: NFκB", "conditions": "2^−ΔΔCt, actin reference, Bis group: bisacodyl 100 mg/kg per day", "description": "as §3, §4"}, "iNOS mRNA": {"test_system": "iNOS mRNA", "assay": "RT-qPCR mRNA expression in small intestine: iNOS", "conditions": "2^−ΔΔCt, actin reference, Bis group: bisacodyl 100 mg/kg per day", "description": "as §3, §4"}, "eNOS mRNA": {"test_system": "eNOS mRNA", "assay": "RT-qPCR mRNA expression in small intestine: eNOS", "conditions": "2^−ΔΔCt, actin reference, Bis group: bisacodyl 100 mg/kg per day", "description": "as §3, §4"}, "nNOS mRNA": {"test_system": "nNOS mRNA", "assay": "RT-qPCR mRNA expression in small intestine: nNOS", "conditions": "2^−ΔΔCt, actin reference, Bis group: bisacodyl 100 mg/kg per day", "description": "as §3, §4"}, "SCF mRNA": {"test_system": "SCF mRNA", "assay": "RT-qPCR mRNA expression in small intestine: SCF", "conditions": "2^−ΔΔCt, actin reference, Bis group: bisacodyl 100 mg/kg per day", "description": "as §3, §4"}}, "data": [{"compound": "CC(=O)Oc1ccc(C(c2ccc(OC(C)=O)cc2)c2ccccn2)cc1", "note": "[Bis, bisacodyl]", "values": [{"measurement": "ET-1", "setting": "endothelin-1 (ET-1)", "value": "21.44 ± 1.28", "unit": "pg/mL"}, {"measurement": "Gas", "setting": "gastrin (Gas)", "value": "10.09 ± 0.69", "unit": "pg/mL"}, {"measurement": "MTL", "setting": "motilin (MTL)", "value": "57.89 ± 2.65", "unit": "pg/mL"}, {"measurement": "SP", "setting": "substance P (SP)", "value": "51.60 ± 3.48", "unit": "pg/mL"}, {"measurement": "SS", "setting": "somatostatin (SS)", "value": "28.09 ± 1.89", "unit": "pg/mL"}, {"measurement": "VIP", "setting": "[1]", "value": "36.13 ± 2.37", "unit": "pg/mL"}, {"measurement": "mRNA expression levels COX-2", "setting": "COX-2 mRNA", "value": "0.43 ± 0.05"}, {"measurement": "mRNA expression levels c-kit", "setting": "c-kit mRNA", "value": "0.08 ± 0.01"}, {"measurement": "mRNA expression levels NFκB", "setting": "NFκB mRNA", "value": "2.21 ± 0.84"}, {"measurement": "mRNA expression levels iNos", "setting": "iNOS mRNA", "value": "0.04 ± 0.00"}, {"measurement": "mRNA expression levels eNos", "setting": "eNOS mRNA", "value": "0.03 ± 0.00"}, {"measurement": "mRNA expression levels nNos", "setting": "nNOS mRNA", "value": "0.04 ± 0.00"}, {"measurement": "mRNA expression levels SCF", "setting": "SCF mRNA", "value": "3.66 ± 0.62"}]}]}
